Test results from ChEMBL document CHEMBL3813655 (ACS Med Chem Lett, 2016).
Active and inactive are the calls of the source. The rule behind the calls is not given here.

Columns and labels:
[1] = biological target: Receptor-type tyrosine-protein kinase FLT3 (Homo sapiens, UniProt P36888, D835Y)
[2] = test system: BaF3; assay: Induction of apoptosis in […]-D835Y mutant expressing mouse BA/F3 cells up to 1000 nM after 48 hrs by Annexin V-fluos assay; format: functional, cell-based
[3] = species: Homo sapiens; assay: Antiproliferative activity against human P31 cells assessed as cell viability by cell titer glo assay; format: functional, cell-based
[4] = test system: K562; assay: Antiproliferative activity against human K562 cells assessed as cell viability by cell titer glo assay; format: functional, cell-based
[5] = test system: NB-4; assay: Antiproliferative activity against pMMP-LucNeo fused human NB4 cells assessed as cell viability by cell titer glo assay; format: functional, cell-based
[6] = biological target: Rho-associated protein kinase 2 (Homo sapiens, UniProt O75116); assay: Inhibition of ROCK2 (unknown origin) by kinomescan analysis
Rho-associated protein kinase 2, sequence (O75116 whole entry): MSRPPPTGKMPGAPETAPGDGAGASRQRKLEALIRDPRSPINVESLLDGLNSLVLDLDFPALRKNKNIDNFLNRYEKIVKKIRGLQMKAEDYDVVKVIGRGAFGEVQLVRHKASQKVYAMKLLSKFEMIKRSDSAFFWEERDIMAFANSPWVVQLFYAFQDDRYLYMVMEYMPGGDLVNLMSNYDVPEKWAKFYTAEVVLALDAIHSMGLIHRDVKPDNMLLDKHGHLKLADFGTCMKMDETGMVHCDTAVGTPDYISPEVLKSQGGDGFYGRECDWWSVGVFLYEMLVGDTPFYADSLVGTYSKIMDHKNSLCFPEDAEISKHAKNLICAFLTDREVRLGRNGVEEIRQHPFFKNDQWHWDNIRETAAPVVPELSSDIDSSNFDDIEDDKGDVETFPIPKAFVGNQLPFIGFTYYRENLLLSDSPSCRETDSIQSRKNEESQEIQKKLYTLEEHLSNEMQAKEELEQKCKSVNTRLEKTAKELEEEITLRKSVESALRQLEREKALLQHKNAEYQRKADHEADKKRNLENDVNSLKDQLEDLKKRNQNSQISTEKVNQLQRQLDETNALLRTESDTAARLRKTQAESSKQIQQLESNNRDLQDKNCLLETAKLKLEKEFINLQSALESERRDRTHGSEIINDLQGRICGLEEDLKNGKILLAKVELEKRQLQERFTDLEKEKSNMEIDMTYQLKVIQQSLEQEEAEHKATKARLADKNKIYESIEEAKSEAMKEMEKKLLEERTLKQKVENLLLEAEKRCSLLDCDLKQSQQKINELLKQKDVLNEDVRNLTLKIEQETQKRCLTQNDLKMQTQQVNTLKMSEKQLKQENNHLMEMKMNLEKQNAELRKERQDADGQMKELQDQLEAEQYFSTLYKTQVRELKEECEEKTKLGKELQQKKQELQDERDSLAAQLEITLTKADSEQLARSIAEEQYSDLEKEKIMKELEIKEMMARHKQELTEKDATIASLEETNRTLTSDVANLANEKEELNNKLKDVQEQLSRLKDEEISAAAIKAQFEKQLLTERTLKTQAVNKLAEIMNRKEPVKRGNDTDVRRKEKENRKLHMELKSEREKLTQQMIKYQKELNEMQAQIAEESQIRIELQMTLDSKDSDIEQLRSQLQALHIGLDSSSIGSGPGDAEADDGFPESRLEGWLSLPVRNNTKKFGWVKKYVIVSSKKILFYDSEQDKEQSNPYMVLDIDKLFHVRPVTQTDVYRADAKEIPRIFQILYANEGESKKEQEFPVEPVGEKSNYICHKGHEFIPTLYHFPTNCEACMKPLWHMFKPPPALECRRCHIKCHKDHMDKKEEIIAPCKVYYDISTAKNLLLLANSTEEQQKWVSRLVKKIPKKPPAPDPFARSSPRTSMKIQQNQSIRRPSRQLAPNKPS

[7] = test system: Plasma; assay: Stability in mouse plasma after 6 hrs; format: ADME, cell-free
[8] = Cell cycle arrest in […]-D835Y mutant expressing mouse BA/F3 cells assessed accumulation at G1 phase up to 100 nM after 48 hrs by propidium iodide staining based FACS analysis; format: functional; conditions: BaF3
[9] = test system: MOLM-14; assay: Antiproliferative activity against human MOLM14 cells assessed as cell viability after 3 days by cell titer glo assay; format: functional, cell-based
[10] = test system: THP-1; assay: Antiproliferative activity against human THP1 cells assessed as cell viability by cell titer glo assay; format: functional, cell-based
[11] = test system: Serum; assay: Protein binding in 10% human serum at 100 uM after 3 days; format: ADME; conditions: 72 h
[12] = biological target: Receptor-type tyrosine-protein kinase FLT3 (Homo sapiens) (UniProt P36888); conditions: 1 uM
Description: Inhibition of wild type FLT3 (unknown origin) at 1 uM by kinomescan analysis

[13] = test system: HEL; assay: Antiproliferative activity against human HEL cells assessed as cell viability by cell titer glo assay; format: functional, cell-based
[14] = biological target: Dual specificity protein kinase CLK1 (Homo sapiens) (UniProt P49759); assay: Inhibition of CLK1 (unknown origin) at 1 uM by kinomescan analysis
Dual specificity protein kinase CLK1 (Homo sapiens), sequence (P49759 whole entry, looked up): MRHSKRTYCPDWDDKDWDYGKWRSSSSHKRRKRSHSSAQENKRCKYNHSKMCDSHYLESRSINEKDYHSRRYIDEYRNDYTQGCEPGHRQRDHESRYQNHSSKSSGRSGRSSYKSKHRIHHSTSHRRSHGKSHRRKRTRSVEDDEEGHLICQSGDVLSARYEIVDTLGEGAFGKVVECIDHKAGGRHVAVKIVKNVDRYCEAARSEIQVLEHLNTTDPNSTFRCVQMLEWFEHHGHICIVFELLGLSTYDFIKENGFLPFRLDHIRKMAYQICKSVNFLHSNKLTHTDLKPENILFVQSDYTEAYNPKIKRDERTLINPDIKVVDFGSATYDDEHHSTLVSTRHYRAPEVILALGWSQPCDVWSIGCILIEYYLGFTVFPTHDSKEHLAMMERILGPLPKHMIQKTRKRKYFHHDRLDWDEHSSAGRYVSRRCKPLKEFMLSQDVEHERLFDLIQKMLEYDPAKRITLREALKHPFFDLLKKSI

[15] = test system: BaF3; assay: Induction of apoptosis in […]-ITD mutant expressing mouse BA/F3 cells up to 1000 nM after 48 hrs by Annexin V-fluos assay; format: functional, cell-based
[16] = test system: Receptor-type tyrosine-protein kinase FLT3 (Homo sapiens), P36888 [UNDEFINED MUTATION]; conditions: 1 uM
[17] = test system: U-937; assay: Antiproliferative activity against human U937 cells assessed as cell viability by cell titer glo assay; format: functional, cell-based
[18] = biological target: Phosphorylase b kinase gamma catalytic chain, skeletal muscle/heart isoform (Homo sapiens, UniProt Q16816); assay: Inhibition of PHKGI (unknown origin) by kinomescan analysis
Phosphorylase b kinase gamma catalytic chain, skeletal muscle/heart isoform, sequence (Q16816 whole entry, canonical isoform): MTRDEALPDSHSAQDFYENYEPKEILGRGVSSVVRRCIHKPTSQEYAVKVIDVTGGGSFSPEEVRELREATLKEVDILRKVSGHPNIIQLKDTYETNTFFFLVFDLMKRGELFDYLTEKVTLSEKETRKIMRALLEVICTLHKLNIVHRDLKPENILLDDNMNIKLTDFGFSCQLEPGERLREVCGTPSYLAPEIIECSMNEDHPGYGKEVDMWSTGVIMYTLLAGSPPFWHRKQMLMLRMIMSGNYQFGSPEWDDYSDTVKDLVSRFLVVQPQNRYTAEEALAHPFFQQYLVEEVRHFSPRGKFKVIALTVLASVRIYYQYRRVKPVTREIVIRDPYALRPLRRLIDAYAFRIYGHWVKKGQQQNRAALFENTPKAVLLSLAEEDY

[19] = biological target: Receptor-type tyrosine-protein kinase FLT3 (Homo sapiens, UniProt P36888, ITD)
[20] = Half life in mouse microsomes; format: ADME, Microsome
[21] = test system: PF-382; assay: Antiproliferative activity against human PF382 cells assessed as cell viability by cell titer glo assay; format: functional, cell-based
[22] = Antiproliferative activity against human patient-derived FLT3 ITD mutant expressing AML cells primagrafted in mouse spleen after 3 days; format: functional, cell-based; conditions: 72 h
[23] = test system: NOMO-1; assay: Antiproliferative activity against human NOMO1 cells assessed as cell viability by cell titer glo assay; format: functional, cell-based
[24] = test system: Receptor-type tyrosine-protein kinase FLT3 (Homo sapiens), P36888 [UNDEFINED MUTATION]; conditions: 1 uM; remark: listed apart in the source
[25] = test system: MOLM-13; assay: Antiproliferative activity against pMMP-LucNeo fused human MOLM13 cells assessed as cell viability after 3 days by cell titer glo assay; format: functional, cell-based
[26] = test system: K052; assay: Antiproliferative activity against human K052 cells assessed as cell viability by cell titer glo assay; format: functional, cell-based
[27] = Cell cycle arrest in […]-ITD mutant expressing mouse BA/F3 cells assessed accumulation at G1 phase up to 100 nM after 48 hrs by propidium iodide staining based FACS analysis; format: functional; conditions: BaF3
[28] = test system: Receptor-type tyrosine-protein kinase FLT3 (Homo sapiens), P36888 [UNDEFINED MUTATION]; conditions: 1 uM; remark: listed apart in the source
[29] = Antiproliferative activity against human patient-derived FLT3 D835Y mutant expressing AML cells primagrafted in mouse spleen after 3 days; format: functional, cell-based; conditions: 72 h
[30] = biological target: Dual specificity protein kinase CLK4 (Homo sapiens, UniProt Q9HAZ1); assay: Inhibition of CLK4 (unknown origin) by kinomescan analysis
Dual specificity protein kinase CLK4, sequence (Q9HAZ1 whole entry): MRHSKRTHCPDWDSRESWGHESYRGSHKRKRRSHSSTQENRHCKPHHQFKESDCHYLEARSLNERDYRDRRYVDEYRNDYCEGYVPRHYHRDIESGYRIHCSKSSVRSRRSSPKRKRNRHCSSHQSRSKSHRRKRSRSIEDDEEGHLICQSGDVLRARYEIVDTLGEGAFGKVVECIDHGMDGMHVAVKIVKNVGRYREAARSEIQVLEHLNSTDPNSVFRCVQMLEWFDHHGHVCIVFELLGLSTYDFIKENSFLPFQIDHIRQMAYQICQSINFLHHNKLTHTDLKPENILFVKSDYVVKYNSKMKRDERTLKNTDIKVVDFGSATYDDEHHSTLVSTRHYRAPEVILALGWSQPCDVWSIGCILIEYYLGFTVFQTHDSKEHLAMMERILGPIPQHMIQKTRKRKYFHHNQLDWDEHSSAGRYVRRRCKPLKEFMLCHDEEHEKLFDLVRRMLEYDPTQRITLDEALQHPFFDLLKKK

[31] = test system: Receptor-type tyrosine-protein kinase FLT3 (Homo sapiens), P36888 [N841I]; conditions: 1 uM
Description: Inhibition of FLT3 N841I mutant (unknown origin) at 1 uM by kinomescan analysis

[32] = test system: Receptor-type tyrosine-protein kinase FLT3 (Homo sapiens), P36888 [R834Q]; conditions: 1 uM
Description: Inhibition of FLT3 R834Q double mutant (unknown origin) at 1 uM by kinomescan analysis

[33] = test system: NALM-6; assay: Antiproliferative activity against human NALM6 cells assessed as cell viability by cell titer glo assay; format: functional, cell-based
[34] = test system: Receptor-type tyrosine-protein kinase FLT3 (Homo sapiens), P36888 [D835V]; conditions: 1 uM
Description: Inhibition of FLT3 D835V mutant (unknown origin) at 1 uM by kinomescan analysis

## CN(C)CCCn1cc(-c2ccc3c(c2)-c2[nH]c4cc(-c5cn[nH]c5)ccc4c2C3=O)cn1
[1]
  IC50: 4 nM
[2]
  Activity: Active
[3]
  Activity: inactive
[4]
  Activity: inactive
[5]
  Activity: inactive
[6]
  IC50: 936 nM
[7]
  Stability: Stable
[8]
  Activity: inactive
[9]
  Activity: Active
[10]
  Activity: inactive
[11]
  PB: Active
[12]
  inhibition: > 95%
[13]
  Activity: inactive
[14]
  inhibition: Active
[15]
  Activity: Active
[16]
  inhibition: > 95%
[17]
  Activity: inactive
[18]
  IC50: 78 nM
[19]
  IC50: 10 nM
[20]
  half-life: 15 min
[21]
  Activity: inactive
[22]
  IC50: 70 nM
[23]
  Activity: inactive
[24]
  inhibition: > 95%
[25]
  Activity: Active
[26]
  Activity: inactive
[27]
  Activity: Active
[28]
  inhibition: > 95%
[29]
  IC50: 70 nM
[30]
  IC50: 142 nM
[31]
  inhibition: > 95%
[32]
  inhibition: > 95%
[33]
  Activity: inactive
[34]
  inhibition: > 95%
